Source: patent US20080153858A1, “ANTITUMORIGENIC DRUG COMBINATION” (ABBOTT LABORATORIES, priority 2006, published 2008)
Marks after values point to notes of the source that are not given here.

What was measured:
[1] = tested on: thymidine kinase minus human colon carcinoma xenograft (GC3 TK-); assay: GC3 TK- flank xenograft model, tumor growth delay; format: in vivo, nu/nu mice
Method: nu/nu female mice (Charles Rivers Labs) were injected subcutaneously with 0.2 mL of 5×10^6 GC3TK-100c3 cells (1:1 matrigel) on study day 0. […] The cellular implantation site was the right flank, and all mice were ear tagged. Tumors were size matched to 205 mm^3, and animals were placed into the therapy groups shown in the study design below (Table 3). The tumors were measured with calipers 2 times per week after tumors were palpable. The mice were humanely euthanized when the tumor volumes reached a predetermined size. The study design was as follows: [table]

Calu-6 NSCLC xenograft = assay: Calu-6 flank xenograft model, tumor growth delay; format: in vivo, nu/nu mice
Method: Female nu/nu mice (Charles River Labs.) were injected subcutaneously with 0.25 mL of 5×10^6 Calu-6 cells (1:1 with matrigel) on study day 0. The human Calu-6 cells were obtained from a tumor homogenate from previously inoculated donor mice. The cellular implantation site was the right thigh, and all mice were ear tagged. On day 10, tumors were size matched to approximately 170 mm^3 and were placed into the therapy groups outlined in the study design below. The tumors were measured with calipers 2-3 times per week after tumors were palpable. Tumor volume were calculated according to the formula V=L×W^2/2 (V: volume, mm^3; L: length, mm. W: width, mm). The mice were humanely euthanized when the tumor volumes reached a predetermined size. The study design was as follows:
ABT-751 was formulated in 1% HCl, 4% ethanol, and 95% D5W while pemetrexed was formulated in normal saline.
Study group treatments are defined in Table 1.

[2] = tested on: thymidine kinase minus human colon carcinoma xenograft (GC3 TK-); conditions: Schultz, 1999; cited from earlier work

COc1ccc(S(=O)(=O)Nc2cccnc2Nc2ccc(O)cc2)cc1 [ABT-751, N-(2-((4-Hydroxyphenyl)amino)pyridin-3-yl)-4-methoxybenzenesulfonamide]
Median % TGD (tumor growth delay) increase compared to vehicle in time to 0.75 cc tumor ([1]; Group 1: ABT-751 100 mg/kg p.o. Days 38-42 and 48-52, plus pemetrexed vehicle): 0.0% | Mean % TGD (tumor growth delay) increase compared to vehicle in time to 1.5 cc tumor (Calu-6 NSCLC xenograft; Group 1: ABT-751 100 mg/kg p.o. Days 10-14 and 20-24, plus pemetrexed vehicle): 18.0***^b % | Mean % TGD (tumor growth delay) increase compared to vehicle in time to 1.5 cc tumor (Calu-6 NSCLC xenograft; Group 6: ABT-751 100 mg/kg p.o. Days 15-19 and 25-29, plus pemetrexed vehicle): 18.0*** %

Nc1nc2[nH]cc(CCc3ccc(C(=O)N[C@@H](CCC(=O)O)C(=O)O)cc3)c2c(=O)[nH]1 [pemetrexed]
sensitivity in the thymidine kinase-deficient GC3 model [2]: quite sensitive | Median % TGD (tumor growth delay) increase compared to vehicle in time to 0.75 cc tumor ([1]; Group 2: pemetrexed 150 mg/kg i.p. Days 38-42, plus ABT-751 vehicle): 14.8% | Median % TGD (tumor growth delay) increase compared to vehicle in time to 0.75 cc tumor ([1]; Group 3: pemetrexed 150 mg/kg i.p. Days 43-47, plus ABT-751 vehicle): 30.7*^b % | Mean % TGD (tumor growth delay) increase compared to vehicle in time to 1.5 cc tumor (Calu-6 NSCLC xenograft; Group 2: pemetrexed 150 mg/kg i.p. Days 10-14 and 20-24, plus ABT-751 vehicle): 11.1** % | Mean % TGD (tumor growth delay) increase compared to vehicle in time to 1.5 cc tumor (Calu-6 NSCLC xenograft; Group 4: pemetrexed 150 mg/kg i.p. Days 15-19 and 25-29, plus ABT-751 vehicle): 5.6* %
